Tests used:
Assay type in all cases: toxicity, cell-based
[1] = MMV: MTT Cytotoxicity Assay Day 7 pi of Assay #11 (NO washout), U87-CD4-CXCR4 cells, % cell death @ 5mM compound; conditions: human, u87-cd4-cxcr4, 5000 µM
[2] = MMV: MTT Cytotoxicity Assay Day 7 pi of Assay #6 (compound washed out Day 1 pi), U87-CD4-CCR5 cells, % cell death @ 5mM compound; conditions: human, u87-cd4-ccr5, 5000 µM
[3] = MMV: MTT Cytotoxicity Assay Day 7 pi of Assay #7 (compound washed out Day 1 pi), U87-CD4-CXCR4 cells, % cell death @ 5mM compound; conditions: human, u87-cd4-cxcr4, 5000 µM
[4] = MMV: MTT Cytotoxicity Assay Day 7 pi of Assay #10 (NO washout), U87-CD4-CCR5 cells, % cell death @ 5mM compound; conditions: human, u87-cd4-ccr5, 5000 µM
[5] = MMV: MTT Cytotoxicity Assay Day 3 pi, U87-CD4-CCR5 cells, % cell death @ 5mM compound; conditions: human, u87-cd4-ccr5, 5000 µM
[6] = MMV: MTT Cytotoxicity Assay Day 3 pi, U87-CD4-CXCR4 cells, % cell death @ 5mM compound; conditions: human, u87-cd4-cxcr4, 5000 µM

Row | SMILES | % Cell Death [1] | % Cell Death [2] | % Cell Death [3] | % Cell Death [4] | % Cell Death [5] | % Cell Death [6]
1 | Cc1ccc(Cn2c(N3CCC(C(=O)NCc4cccs4)CC3)nc3ccccc32)cc1 | 78 | 12 | 58 | 18 | 5 | 4
2 | CN(C)CCCNCc1ccc(-c2ccc(F)c(Cl)c2)o1.Cl | -24 | 16 | -17 | 8 | 20 | 27
3 | O=C1c2ccccc2-c2nnc(-c3ccc(Br)cc3)cc21 | -24 | 1 | 4 | 24 | 2 | 16
4 | COc1cccc(Nc2nc(N)c3ccccc3n2)c1.Cl | -77 | 13 | -5 | -2 | -31 | 22
5 | CCN(CC)CCCNc1nc(-c2ccc(Cl)cc2)nc2ccccc12 | -10 | 13 | 18 | 18 | -18 | 13
6 | CCN1CCN(c2c(C(=O)c3ccccc3)cnc3cc(OC)c(OC)cc23)CC1 | 99 | 23 | -11 | 47 | 43 | 85
7 | COc1cc(OC)cc(C(=O)Nc2ccc(-c3nc4ccccc4[nH]3)cc2)c1 | 116 | 59 | 55 | 115 | 47 | 63
8 | CC(=O)c1sc(NC(=O)Nc2ccc(C)cc2C)nc1C | 20 | -30 | -18 | 31 | -1 | 45
9 | Cc1cc(N2CCN(C3CCCC3)CC2)n2c(nc3ccccc32)c1C#N | -3 | 48 | -24 | 35 | 35 | 44
10 | CNCCCNc1ccnc2cc(Cl)ccc12 | 100 | 97 | 98 | 124 | 108 | 100
11 | OC(CNC1CCCCC1)Cn1c2ccccc2c2ccccc21 (stereo not given) | -3 | 13 | -20 | 35 | -3 | 14
12 | COc1ccc(C)c2sc(N(Cc3cccnc3)C(=O)c3ccc(C#N)cc3)nc12 | -39 | -1 | -6 | 13 | -7 | 24
13 | O=C(NC1CCCCC1)C(c1cccs1)N(CCc1ccccc1)C(=O)c1ccco1 (stereo not given) | 97 | 90 | 61 | 90 | 93 | 54
14 | CN1CCN(c2c3c(c(C#N)c4nc5ccccc5n24)CCC3)CC1 | 16 | 1 | -15 | 8 | -3 | -10
15 | COc1cc2c3cc1Oc1c(OC)c(OC)cc4c1C(Cc1ccc(O)c(c1)Oc1ccc(cc1)CC3N(C)CC2)N(C)CC4.Cl (stereo not given) | 83 | 3 | 32 | 43 | -12 | 36
16 | COc1nc(Nc2ccc(C(C)C)cc2)nc(OC)n1 | 24 | 33 | -7 | 33 | -1 | 32
17 | COc1ccc(C(=O)C(CCC(CNC(C)(C)C)C(=O)c2ccc(OC)cc2)CNC(C)(C)C)cc1 (stereo not given) | 105 | 27 | 75 | 137 | 94 | 100
18 | O=C1CC(O)(C(F)(F)C(F)(F)F)Oc2ccccc21 (stereo not given) | 35 | 4 | -15 | 17 | -14 | 32
19 | Cl.OC(CNCc1ccccc1)Cn1c2ccccc2c2ccccc21 (stereo not given) | -23 | 10 | -9 | 11 | 19 | 18
20 | O=C(Nc1ccc(CN2CCOCC2)cc1)c1ccc(-c2cc(Cl)ccc2Cl)o1 | 36 | -8 | -21 | 41 | -2 | 28

Row | SMILES | % Cell Death [1] | % Cell Death [2] | % Cell Death [3] | % Cell Death [4] | % Cell Death [5] | % Cell Death [6]
21 | Oc1c(C(Nc2ccccn2)c2cccc(Oc3ccccc3)c2)ccc2cccnc12 (stereo not given) | 106 | 91 | 97 | 139 | 113 | 101
22 | N=c1c2ccccc2nnn1-c1cccc(C(F)(F)F)c1 | 112 | 68 | 86 | 101 | 106 | 99
23 | CCCN(CCC)CCCNC(=O)c1cc2c(-c3ccc(OC)c(OC)c3)nn(C)c2s1 | 103 | 59 | -24 | 100 | 51 | 9
24 | Oc1ccc2ccccc2c1CNc1nc2ccccc2[nH]1 | 42 | -27 | -22 | 36 | 53 | 32
25 | O=C(NC1CCCC1)c1ccc(N2CCC(NCc3cccc(C(F)(F)F)c3)CC2)cc1 | 6 | -1 | 7 | -4 | 4 | 35
26 | OC(CNC1CCCC1)Cn1c2ccccc2c2ccccc21 (stereo not given) | -3 | 2 | -15 | 7 | 10 | 31
27 | CCOC(=O)c1cnc2ccc(Cl)cc2c1NCCCN(C)C | -22 | 3 | -14 | -6 | 17 | 26
28 | CCOc1ccc2nc(C)cc(Nc3ccc(Br)cc3)c2c1 | 106 | 26 | 72 | 108 | 82 | 64
29 | O=C(Nc1ccccc1O)c1ccc(-c2ccc(Cl)cc2Cl)o1 | 64 | 34 | 66 | 11 | -37 | -23
30 | CCOc1ccc2nc(C)cc(Nc3ccc(N(C)C)cc3)c2c1.Cl | 0 | -13 | 4 | 23 | -27 | 57
31 | CCC(O)c1ccc(Br)cc1NC(=O)c1cccc(Cl)c1 (stereo not given) | -37 | -24 | 28 | 6 | -44 | 11
32 | Clc1ccc2[nH]c3c(NCCCN4CCOCC4)ncnc3c2c1 | 118 | 105 | 91 | 141 | 110 | 100
33 | O=C(Nc1ccc(C23CC4CC(CC(c5ccccc5)(C4)C2)C3)cc1)c1cccs1 | 109 | 109 | 98 | 77 | 107 | 95
34 | COc1cccc(C(=O)Nc2ccc(-c3nc4ccccc4[nH]3)cc2)c1 | 35 | 3 | 7 | 34 | 27 | 39
35 | CCc1ccc(Nc2cc(C)c3ccc(O)cc3n2)cc1.Cl | 102 | 101 | 95 | 130 | 105 | 101
36 | CCOc1ccccc1CN1CCc2nc3cc(C(C)(C)C)nn3c(O)c2C1 | 98 | -7 | 3 | 95 | 100 | 21
37 | COc1ccc(-c2cc(=O)oc3c4c(ccc23)OCN(Cc2ccc(F)cc2)C4)cc1 | -26 | 16 | -9 | 29 | 20 | 21
38 | O=c1c2c([nH]c3ccccc13)CCCC2 | -44 | 7 | -18 | -11 | 9 | 33
39 | COc1cc(-c2nc(-c3ccccc3)c(-c3ccccc3)[nH]2)cc(OC)c1O | 105 | 88 | 84 | 120 | 104 | 52
40 | CCOc1cc(Br)c(C(C)NC(=O)c2cccc(OC)c2)cc1OCC (stereo not given) | -7 | 13 | 11 | 28 | -32 | -7

From ChEMBL document CHEMBL3301472, “MMV Malaria Box HIV and cytotoxicity screening”
